Measurements from ChEMBL document CHEMBL5352406 (Eur J Med Chem, 2022).

Columns and labels:
MCF7 = assay: Antiproliferative activity against human MCF7 cells assessed as cell growth inhibition after 72 hrs by MTT assay; assay type: functional
HCT-116 [1] = assay: Antiproliferative activity against human HCT-116 cells assessed as cell growth inhibition after 72 hrs by MTT assay; assay type: functional
SW480 = assay: Antiproliferative activity against human SW480 cells assessed as cell growth inhibition after 72 hrs by MTT assay; assay type: functional
CDK9/cyclin T1 = CDK9/cyclin T1 (Homo sapiens, UniProt P50750)
Description: Inhibition of CDK9/CyclinT1 (unknown origin) by ADP-Glo kinase assay

Acetylcholinesterase = Acetylcholinesterase (Electrophorus electricus, UniProt O42275); assay: Inhibition of electric eel AChE using acetylthiocholine […] as substrate for 20 mins by Ellman's method
A549 = assay: Antiproliferative activity against human A549 cells assessed as cell growth inhibition after 72 hrs by MTT assay; assay type: functional
Cholinesterase = Cholinesterase (Equus caballus, UniProt P81908); assay: Inhibition of equine serum BuChE using […] as substrate for 20 mins by Ellman's method
[2] = biological target: CDK2/Cyclin A2 (Homo sapiens) (UniProt P24941+P20248); assay: Inhibition of human full length CDK2/CyclinA2 at 500 nM by ADP-Glo kinase assay relative to control; assay type: protein-complex assay
[3] = biological target: CDK9/cyclin T1 (Homo sapiens) (UniProt O60563+P50750); assay: Inhibition of CDK9/CyclinT1 (unknown origin) at 500 nM by ADP-Glo kinase assay relative to control; assay type: protein-complex assay
HCT-116 [4] = assay: Induction of apoptosis in human HCT-116 cells assessed as necrotic cells at 10 nM measured after 48 hrs by Annexin V-FITC/PI assay (reference value: 2.31%); assay type: functional
HCT-116 [5] = assay: Induction of apoptosis in human HCT-116 cells assessed as early apoptotic cells at 10 nM measured after 48 hrs by Annexin V-FITC/PI assay (reference value: 3.16%); assay type: functional
HCT-116 [6] = assay: Cell cycle arrest in human HCT-116 cells assessed as accumulation of cells at S phase at 10 nM measured after 48 hrs by flow cytometry (reference value: 31.43%); assay type: functional
HCT-116 [7] = assay: Cell cycle arrest in human HCT-116 cells assessed as accumulation of cells at G0-G1 phase at 10 nM measured after 48 hrs by flow cytometry (reference value: 62.18%); assay type: functional
HCT-116 [8] = assay: Induction of apoptosis in human HCT-116 cells assessed as late apoptotic cells at 10 nM measured after 48 hrs by Annexin V-FITC/PI assay (reference value: 6.06%); assay type: functional
HCT-116 [9] = assay: Cell cycle arrest in human HCT-116 cells assessed as accumulation of cells at […] phase at 10 nM measured after 48 hrs by flow cytometry (reference value: 6.39%); assay type: functional
HCT-116 [10] = assay: Induction of apoptosis in human HCT-116 cells assessed as viable cells at 10 nM measured after 48 hrs by Annexin V-FITC/PI assay (reference value: 88.5%); assay type: functional; settings: read-out: Activity

Sequence of Cholinesterase (P81908 whole entry): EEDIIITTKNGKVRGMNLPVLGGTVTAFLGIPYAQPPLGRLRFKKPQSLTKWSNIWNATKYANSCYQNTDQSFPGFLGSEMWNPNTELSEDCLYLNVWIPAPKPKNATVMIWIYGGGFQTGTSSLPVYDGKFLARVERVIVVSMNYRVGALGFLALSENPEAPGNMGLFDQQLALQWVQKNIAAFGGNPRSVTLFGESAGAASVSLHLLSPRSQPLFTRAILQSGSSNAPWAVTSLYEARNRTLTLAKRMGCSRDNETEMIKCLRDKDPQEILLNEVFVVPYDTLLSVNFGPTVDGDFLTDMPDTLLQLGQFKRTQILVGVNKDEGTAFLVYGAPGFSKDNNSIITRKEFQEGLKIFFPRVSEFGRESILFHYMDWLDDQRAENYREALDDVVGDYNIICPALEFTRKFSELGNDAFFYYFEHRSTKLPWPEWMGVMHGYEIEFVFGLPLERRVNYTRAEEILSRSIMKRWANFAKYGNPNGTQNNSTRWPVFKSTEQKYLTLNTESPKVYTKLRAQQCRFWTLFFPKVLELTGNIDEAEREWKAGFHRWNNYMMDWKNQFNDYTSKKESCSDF
Sequence of Acetylcholinesterase (O42275 whole entry): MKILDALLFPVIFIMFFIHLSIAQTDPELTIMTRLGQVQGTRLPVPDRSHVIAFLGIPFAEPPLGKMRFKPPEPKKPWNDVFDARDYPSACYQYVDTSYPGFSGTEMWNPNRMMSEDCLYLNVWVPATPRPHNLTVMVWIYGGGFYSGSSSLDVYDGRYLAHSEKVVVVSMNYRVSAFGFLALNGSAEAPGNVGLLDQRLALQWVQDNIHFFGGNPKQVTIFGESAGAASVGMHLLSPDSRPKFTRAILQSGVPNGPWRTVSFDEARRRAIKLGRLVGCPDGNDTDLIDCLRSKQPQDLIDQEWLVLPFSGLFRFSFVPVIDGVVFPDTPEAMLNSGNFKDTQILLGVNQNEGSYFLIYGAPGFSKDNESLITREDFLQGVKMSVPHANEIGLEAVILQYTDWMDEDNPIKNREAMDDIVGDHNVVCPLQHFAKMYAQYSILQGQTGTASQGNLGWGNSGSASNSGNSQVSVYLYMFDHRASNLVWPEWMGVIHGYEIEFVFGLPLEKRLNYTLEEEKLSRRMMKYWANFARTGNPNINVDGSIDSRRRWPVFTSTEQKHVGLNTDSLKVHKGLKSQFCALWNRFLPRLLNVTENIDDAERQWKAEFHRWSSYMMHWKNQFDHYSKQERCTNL
Sequence of CDK9/cyclin T1 (O60563 whole entry): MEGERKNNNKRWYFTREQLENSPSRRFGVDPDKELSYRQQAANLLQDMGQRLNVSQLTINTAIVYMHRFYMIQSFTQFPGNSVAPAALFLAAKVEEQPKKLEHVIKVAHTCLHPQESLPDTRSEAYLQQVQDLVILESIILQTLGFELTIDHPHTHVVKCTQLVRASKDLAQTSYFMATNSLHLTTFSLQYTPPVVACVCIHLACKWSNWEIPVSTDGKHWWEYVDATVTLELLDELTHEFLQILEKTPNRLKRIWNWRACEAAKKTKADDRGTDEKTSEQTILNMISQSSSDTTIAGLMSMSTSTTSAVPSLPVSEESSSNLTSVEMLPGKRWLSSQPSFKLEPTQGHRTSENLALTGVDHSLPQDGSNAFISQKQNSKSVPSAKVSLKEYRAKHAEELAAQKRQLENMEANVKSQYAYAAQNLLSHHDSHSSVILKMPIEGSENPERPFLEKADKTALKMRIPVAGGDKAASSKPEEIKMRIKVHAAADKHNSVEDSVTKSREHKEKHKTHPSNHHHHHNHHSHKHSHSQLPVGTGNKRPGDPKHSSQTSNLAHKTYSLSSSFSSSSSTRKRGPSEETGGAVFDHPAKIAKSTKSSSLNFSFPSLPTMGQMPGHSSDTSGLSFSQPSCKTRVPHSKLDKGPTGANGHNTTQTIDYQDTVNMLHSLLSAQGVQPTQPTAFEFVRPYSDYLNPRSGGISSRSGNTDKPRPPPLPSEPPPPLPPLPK
Sequence of CDK9/cyclin T1 (P50750 whole entry): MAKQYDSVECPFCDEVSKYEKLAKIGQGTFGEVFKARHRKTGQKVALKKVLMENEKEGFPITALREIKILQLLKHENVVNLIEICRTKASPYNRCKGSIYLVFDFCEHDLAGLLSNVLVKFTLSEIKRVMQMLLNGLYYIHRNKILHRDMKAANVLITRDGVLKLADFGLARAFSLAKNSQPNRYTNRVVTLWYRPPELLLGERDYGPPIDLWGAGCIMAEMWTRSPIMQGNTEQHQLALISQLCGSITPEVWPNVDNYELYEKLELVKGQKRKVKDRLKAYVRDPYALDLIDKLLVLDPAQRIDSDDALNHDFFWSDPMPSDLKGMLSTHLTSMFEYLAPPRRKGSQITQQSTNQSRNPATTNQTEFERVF

SMILES | GI50 (MCF7) | GI50 (HCT-116 [1]) | GI50 (SW480) | IC50 (CDK9/cyclin T1) | IC50 (Acetylcholinesterase) | GI50 (A549) | IC50 (Cholinesterase) | inhibition [2] | inhibition [3] | Activity (HCT-116 [4]) | Activity (HCT-116 [5]) | Activity (HCT-116 [6]) | Activity (HCT-116 [7]) | Activity (HCT-116 [8]) | Activity (HCT-116 [9]) | viability at 0.01 µM (HCT-116 [10])
N[C@H]1CCN(c2c3c(nc4ccc(-c5ccnc(Nc6ccc(S(=O)(=O)N7CCCC7)cc6)c5)cc24)CCCCC3)C1 | 3.24 µM | 6.02 µM | 3.52 µM | > 0.5 µM | > 50 µM | 2.69 µM | 4.96 µM | 74.8% | – | – | – | – | – | – | – | –
N[C@H]1CCN(c2c3c(nc4ccc(-c5ccnc(Nc6ccc(S(=O)(=O)N7CCOCC7)cc6)c5)cc24)CCCCC3)C1 | 3.18 µM | 2.26 µM | 3.68 µM | – | 24.9 µM | 2.61 µM | 1.82 µM | 89.5% | 62.4% | – | – | – | – | – | – | –
CN1CCN(S(=O)(=O)c2ccc(Nc3cc(-c4ccc5nc6c(c(N7CC[C@H](N)C7)c5c4)CCCCC6)ccn3)cc2)CC1 | 2.73 µM | 2 µM | 3.23 µM | – | 24.2 µM | 3.21 µM | 4.38 µM | 85% | 57.2% | – | – | – | – | – | – | –
N[C@H]1CCN(c2c3c(nc4ccc(-c5ccnc(Nc6ccc(S(=O)(=O)N7CCNCC7)cc6)c5)cc24)CCCCC3)C1 | 11.6 µM | 5.83 µM | 7.8 µM | > 0.5 µM | 19.5 µM | 7.53 µM | 2.82 µM | 84% | – | – | – | – | – | – | – | –
CS(=O)(=O)c1ccc(Nc2cc(-c3ccc4nc5c(c(N6CC[C@H](N)C6)c4c3)CCCCC5)ccn2)cc1 | 3.16 µM | 3.01 µM | 3.52 µM | – | 24.2 µM | 2.78 µM | 3.05 µM | 90.1% | 80.2% | – | – | – | – | – | – | –
CCc1cnn2c(NCc3ccc[n+]([O-])c3)cc(N3CCCC[C@H]3CCO)nc12 [DINACICLIB] | 0.012 µM | 0.009 µM | 0.008 µM | – | – | 0.006 µM | – | – | – | 1.14% | 33.2% | 44.93% | 45.02% | ~10.4% | 10.05% | 55.3%
